Results from patent US20050090529A1, “3,5 Disubstituted indazole compounds with nitrogen-bearing 5-membered heterocycles, pharmaceutical compositions, and methods for mediating or inhibiting cell proliferation” (PFIZER INC, priority 2003, published 2005).
≈ marks a conversion by molar mass, not a printed value.

Tests used:
CDK2/Cyclin A = target: T1, CDK2/Cyclin A (Homo sapiens, UniProt P24941); assay: Inhibition of CDK2/Cyclin A retinoblastoma kinase activity (apparent Ki); type: biochemical; conditions: read-out: CDK2 Ki
T1 construct: made in house; host or cells: CDK2: insect cells (baculovirus); cyclin A: E. coli
Method in brief: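 Cyclin A complex (proteolyzed cyclin) purified by gel filtration; enzyme-initiated reactions ran 20 min at 30 °C, transferring radiolabelled phosphate from [32P]/[33P]ATP onto a protein substrate, stopped with EDTA and quantified by phosphorimager.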

[1] = Measurement of kinetic solubility; conditions: pH 6.5, aqueous buffer, kinetic from dmso stock
Procedure: Kinetic solubility was determined with a […] stock solution from the compound(s) of interest. […] Samples and standards were then centrifuged and an aliquot was removed for HPLC analysis. Samples and standards were analyzed by HPLC and a final concentration for the sample was determined based on a one-point calibration curve from the corresponding standard. Results were reported as μg's/mL.

SMILES | Ki (CDK2/Cyclin A) | solubility ([1]; 100 mM sodium phosphate buffer) | solubility [1]
CCCc1nc(-c2n[nH]c3ccc(-c4cncc(CNCC)c4C)cc23)[nH]c1C [Example 19, Ethyl-{4-methyl-5-[3-(5-methyl-4-propyl-1H-imidazol-2-yl)-1H-indazol-5-yl]-pyridin-3-ylmethyl}-amine] | < 50 nM | 20 to 120 µg/mL (≈ 51.5 to 309 µM) | 
CCNCc1cncc(-c2ccc3[nH]nc(-c4nc(-c5cccc(C(F)(F)F)c5)c(C)[nH]4)c3c2)c1C [Example 27, Ethyl-(4-methyl-5-{3-[5-methyl-4-(3-trifluoromethyl-phenyl)-1H-imidazol-2-yl]-1H-indazol-5-yl}-pyridin-3-ylmethyl)-amine] | < 50 nM | < 20 µg/mL | 
CCNCc1cncc(-c2ccc3[nH]nc(-c4nc(-c5ccccc5)c(C(=O)N5CCC[C@H]5COC)[nH]4)c3c2)c1C [Example 14, {2-[5-(5-Ethylaminomethyl-4-methyl-pyridin-3-yl)-1H-indazol-3-yl]-5-phenyl-3H-imidazol-4-yl}-(2-methoxymethyl-pyrrolidin-1-yl)-methanone] | > 200 nM | > 120 µg/mL | 
CCNCc1cncc(-c2ccc3[nH]nc(-c4nc(-c5ccccc5)c(C(=O)N5CCC[C@@H]5COC)[nH]4)c3c2)c1C [Example 15, {2-[5-(5-Ethylaminomethyl-4-methyl-pyridin-3-yl)-1H-indazol-3-yl]-5-phenyl-3H-imidazol-4-yl}-(2-methoxymethyl-pyrrolidin-1-yl)-methanone] | > 200 nM | > 120 µg/mL | 
CCNCc1cncc(-c2ccc3[nH]nc(-c4ncc(C(=O)N5CCN(Cc6ccccc6)CC5)[nH]4)c3c2)c1C [Example 66, N-{[5-(3-{5-[(4-benzylpiperazin-1-yl)carbonyl]-1H-imidazol-2-yl}-1H-indazol-5-yl)-4-methylpyridin-3-yl]methyl}ethanamine] | < 50 nM |  | > 120 µg/mL
CCNCc1cncc(-c2ccc3[nH]nc(-c4nc(-c5ccccc5)c(C(=O)N5CCCC5)[nH]4)c3c2)c1C [Example 4, {2-[5-(5-Ethylaminomethyl-4-methyl-pyridin-3-yl)-1H-indazol-3-yl]-5-phenyl-3H-imidazol-4-yl}-pyrrolidin-1-yl-methanone] | 50 to 200 nM | 20 to 120 µg/mL (≈ 39.6 to 237 µM) | 
CCNCc1cncc(-c2ccc3[nH]nc(-c4nc(-c5ccccc5)c(C(=O)NCC(C)C)[nH]4)c3c2)c1C [Example 7, 2-[5-(5-Ethylaminomethyl-4-methyl-pyridin-3-yl)-1H-indazol-3-yl]-5-phenyl-3H-imidazole-4-carboxylic acid isobutyl-amide] | 50 to 200 nM | 20 to 120 µg/mL (≈ 39.4 to 236 µM) | 
CCNCc1cncc(-c2ccc3[nH]nc(-c4nc(-c5ccccc5)c(C(=O)NC5CCCC5)[nH]4)c3c2)c1C [Example 8, 2-[5-(5-Ethylaminomethyl-4-methyl-pyridin-3-yl)-1H-indazol-3-yl]-5-phenyl-3H-imidazole-4-carboxylic acid cyclopentylamide] | 50 to 200 nM | 20 to 120 µg/mL (≈ 38.5 to 231 µM) | 
CCNCc1cncc(-c2ccc3[nH]nc(-c4nc(-c5ccccc5)c(C(=O)N5CCCCC5)[nH]4)c3c2)c1C [Example 9, {2-[5-(5-Ethylaminomethyl-4-methyl-pyridin-3-yl)-1H-indazol-3-yl]-5-phenyl-3H-imidazol-4-yl}-piperidin-1-yl-methanone] | > 200 nM | 20 to 120 µg/mL (≈ 38.5 to 231 µM) | 
CCNCc1cncc(-c2ccc3[nH]nc(-c4nc(-c5ccccc5)c(C(=O)NCCOC)[nH]4)c3c2)c1C [Example 3, 2-[5-(5-Ethylaminomethyl-4-methyl-pyridin-3-yl)-1H-indazol-3-yl]-5-phenyl-3H-imidazol-4-carboxylic acid (2-methoxy-ethyl)-amide] | 50 to 200 nM | 20 to 120 µg/mL (≈ 39.2 to 235 µM) | 
CCNCc1cncc(-c2ccc3[nH]nc(-c4nc(-c5ccccc5)c(C(=O)NCCCOC)[nH]4)c3c2)c1C [Example 11, 2-[5-(5-Ethylaminomethyl-4-methyl-pyridin-3-yl)-1H-indazol-3-yl]-5-phenyl-3H-imidazole-4-carboxylic acid (3-methoxy-propyl)-amide] | 50 to 200 nM | > 120 µg/mL | 
CCNCc1cncc(-c2ccc3[nH]nc(-c4nc(-c5ccc(Cl)cc5)c(C)[nH]4)c3c2)c1C [Example 25, (5-{3-[4-(4-Chloro-phenyl)-5-methyl-1H-imidazol-2-yl]-1H-indazol-5-yl}-4-methyl-pyridin-3-ylmethyl)-ethyl-amine] | < 50 nM | 20 to 120 µg/mL (≈ 43.8 to 263 µM) | 
CCNCc1cncc(-c2ccc3[nH]nc(-c4nc(-c5ccccc5)c(C(=O)NCc5ccccc5)[nH]4)c3c2)c1C [Example 5, 2-[5-(5-Ethylaminomethyl-4-methyl-pyridin-3-yl)-1H-indazol-3-yl]-5-phenyl-3H-imidazole-4-carboxylic acid benzylamide] | < 50 nM | 20 to 120 µg/mL (≈ 36.9 to 222 µM) | 
CCNCc1cncc(-c2ccc3[nH]nc(-c4nc(CC)c(CC)[nH]4)c3c2)c1C [Example 22, {5-[3-(4,5-Diethyl-1H-imidazol-2-yl)-1H-indazol-5-yl]-4-methyl-pyridin-3-ylmethyl}-ethyl-amine] | < 50 nM | > 120 µg/mL | 

Now from value to compound, other results behind:

Ki (CDK2/Cyclin A) | solubility ([1]; 100 mM sodium phosphate buffer) | SMILES | solubility [1]
< 50 nM | 20 to 120 µg/mL (≈ 46.6 to 279 µM) | CCNCc1cncc(-c2ccc3[nH]nc(-c4ncc(C(=O)N5CCCC5)[nH]4)c3c2)c1C [Example 61, N-[(4-methyl-5-{3-[5-(pyrrolidin-1-ylcarbonyl)-1H-imidazol-2-yl]-1H-indazol-5-yl}pyridin-3-yl)methyl]ethanamine] | 
< 50 nM | 20 to 120 µg/mL (≈ 66.6 to 400 µM) | c1c[nH]c(-c2n[nH]c3ccc(-c4cncc5[nH]ccc45)cc23)n1 [Example 94, 3-(1H-Imidazol-2-yl)-5-(1H-pyrrolo[2,3-c]pyridin-4-yl)-1H-indazole] | 
< 50 nM | > 120 µg/mL | CCNCc1cncc(-c2ccc3[nH]nc(-c4nc(C(=O)N5CCCCCC5)c[nH]4)c3c2)c1C [Example 74, N-[(5-{3-[5-(azepan-1-ylcarbonyl)-1H-imidazol-2-yl]-1H-indazol-5-yl}-4-methylpyridin-3-yl)methyl]ethanamine] | 
< 50 nM | 20 to 120 µg/mL (≈ 40.8 to 245 µM) | CCNCc1cncc(-c2ccc3[nH]nc(-c4nc(-c5ccc(C(F)(F)F)cc5)c(C)[nH]4)c3c2)c1C [Example 28, Ethyl-(4-methyl-5-{3-[5-methyl-4-(4-trifluoromethyl-phenyl)-1H-imidazol-2-yl]-1H-indazol-5-yl}-pyridin-3-ylmethyl)-amine] | 
< 50 nM | > 120 µg/mL | CCNCc1cncc(-c2ccc3[nH]nc(-c4cnc[nH]4)c3c2)c1C [Example 90, N-({5-[3-(1H-imidazol-5-yl)-1H-indazol-5-yl]-4-methylpyridin-3-yl}methyl)ethanamine] | 
< 50 nM | 20 to 120 µg/mL (≈ 40.2 to 241 µM) | CCNCc1cncc(-c2ccc3[nH]nc(-c4ncc(C(=O)N5CCC6CCCCC6C5)[nH]4)c3c2)c1C (stereo not shown) [Example 71, N-[(4-methyl-5-{3-[5-(octahydroisoquinolin-2(1H)-ylcarbonyl)-1H-imidazol-2-yl]-1H-indazol-5-yl}pyridin-3-yl)methyl]ethanamine] | 
< 50 nM | > 120 µg/mL | CCNCc1cncc(-c2ccc3[nH]nc(-c4nc5c([nH]4)CCCC5)c3c2)c1CC [Example 46, Ethyl-{4-ethyl-5-[3-(4,5,6,7-tetrahydro-1H-benzoimidazol-2-yl)-1H-indazol-5-yl]-pyridin-3-ylmethyl}-amine] | 
< 50 nM | > 120 µg/mL | CCNCc1cncc(-c2ccc3[nH]nc(-c4ncc(C(=O)N5CCN(Cc6ccccn6)CC5)[nH]4)c3c2)c1C [Example 83, N-({4-methyl-5-[3-(5-{[4-(pyridin-2-ylmethyl)piperazin-1-yl]carbonyl}-1H-imidazol-2-yl)-1H-indazol-5-yl]pyridin-3-yl}methyl)ethanamine] | 
< 50 nM | > 120 µg/mL | CCNCc1cncc(-c2ccc3[nH]nc(-c4nc(C(=O)NC(C)C)c[nH]4)c3c2)c1C [Example 64, 2-(5-{5-[(ethylamino)methyl]-4-methylpyridin-3-yl}-1H-indazol-3-yl)-N-isopropyl-1H-imidazole-5-carboxamide] | 
< 50 nM | 20 to 120 µg/mL (≈ 45.6 to 274 µM) | CCNCc1cncc(-c2ccc3[nH]nc(-c4nc(-c5cccc(OC)c5)c[nH]4)c3c2)c1C [Example 35, Ethyl-(5-{3-[4-(3-methoxy-phenyl)-1H-imidazol-2-yl]-1H-indazol-5-yl}-4-methyl-pyridin-3-ylmethyl)-amine] | 
< 50 nM | 20 to 120 µg/mL (≈ 46.9 to 281 µM) | CCNCc1cncc(-c2ccc3[nH]nc(-c4nc(-c5ccc(F)cc5)c[nH]4)c3c2)c1C [Example 31, Ethyl-(5-{3-[4-(4-fluoro-phenyl)-1H-imidazol-2-yl]-1H-indazol-5-yl}-4-methyl-pyridin-3-ylmethyl)-amine] | 
< 50 nM | > 120 µg/mL | COCc1cncc(-c2ccc3[nH]nc(-c4nc5c([nH]4)CCCC5)c3c2)c1C [Example 41, 5-(5-Methoxymethyl-4-methyl-pyridin-3-yl)-3-(4,5,6,7-tetrahydro-1H-benzoimidazol-2-yl)-1H-indazole] | 
